# Assay results: US7262212B2, “2,3-dihydro-6-nitroimidazo[2,1-b]oxazoles” (Otsuka Pharmaceutical Co., Ltd., priority 2002, dated 2007)
row,Compound,melting point
1,C[C@]1(COC(=O)N2CCC(Oc3ccc(C(F)(F)F)cc3)CC2)Cn2cc([N+](=O)[O-])nc2O1,165 to 166 °C
2,C[C@]1(CN2CCN(C3CCN(C(=O)c4ccc(OC(F)(F)F)cc4)CC3)CC2)Cn2cc([N+](=O)[O-])nc2O1,133 to 134 °C
3,C[C@]1(CN2CCC(N3CCN(CC=Cc4ccc(OC(F)(F)F)cc4)CC3)CC2)Cn2cc([N+](=O)[O-])nc2O1,174 to 175 °C
4,O=[N+]([O-])c1cn2c(n1)OC1(CCN(c3ccc(OC(F)(F)F)cc3)CC1)C2,235.9 to 236.8 °C (dec.)
5,CCOC(=O)N1CCN(c2ccc(OC[C@@]3(C)Cn4cc([N+](=O)[O-])nc4O3)cc2)CC1,210.5 to 212 °C
6,O=[N+]([O-])c1cn2c(n1)OC(COc1ccc(N3CCC(Oc4ccc(OC(F)(F)F)cc4)CC3)cc1)C2 (stereo not drawn),173.2 to 177.3 °C
7,C[C@]1(COc2ccc(C(=O)N3CCN(Cc4ccc(OC(F)(F)F)cc4)CC3)cc2)Cn2cc([N+](=O)[O-])nc2O1,155 to 156 °C
8,CN(CCOc1ccc(OC(F)(F)F)cc1)C[C@@]1(C)Cn2cc([N+](=O)[O-])nc2O1,112.5 to 115 °C
9,C[C@]1(CN(CCOc2ccc(OC(F)(F)F)cc2)Cc2ccccc2)Cn2cc([N+](=O)[O-])nc2O1,96.5 to 97 °C
10,COc1ccc(CN(C)C[C@@]2(C)Cn3cc([N+](=O)[O-])nc3O2)cc1,144 to 147 °C
11,CC1(CNC(=O)OCc2ccc(F)cc2)Cn2cc([N+](=O)[O-])nc2O1 (stereo not drawn),200.4 to 202.1 °C
12,CNC(C1CCN(c2ccc(C#N)cc2)CC1)[C@]1(C)Cn2cc([N+](=O)[O-])nc2O1 (stereo partly drawn),149 to 152 °C
13,CNC(C1CCN(C(=O)OC(C)(C)C)CC1)[C@]1(C)Cn2cc([N+](=O)[O-])nc2O1 (stereo partly drawn),138.5 to 140.3 °C
14,CC(C)(C)OC(=O)NC1CCN(C[C@@]2(C)Cn3cc([N+](=O)[O-])nc3O2)CC1,158.5 to 160.7 °C
15,CC1(CN2CCN(C(=O)Cc3ccc(Cl)c(Cl)c3)CC2)Cn2cc([N+](=O)[O-])nc2O1 (stereo not drawn),189 to 191 °C
16,O=C(OCc1ccc(C(F)(F)F)cc1)N1CCN(CC2Cn3cc([N+](=O)[O-])nc3O2)CC1 (stereo not drawn),120 to 122 °C
17,C[C@]1(CN2CCN(Cc3ccc(C(F)(F)F)cc3)CC2)Cn2cc([N+](=O)[O-])nc2O1,110 to 112 °C
18,Cc1nc(-c2ccc(Cl)cc2)sc1CN1CCN(C[C@@]2(C)Cn3cc([N+](=O)[O-])nc3O2)CC1,174.3 to 175.5 °C
19,CC1(CN2CCN(C(=O)Cc3ccccc3)CC2)Cn2cc([N+](=O)[O-])nc2O1 (stereo not drawn),175.2 to 175.9 °C
20,C[C@]1(CN2CCN(S(=O)(=O)CCCc3ccc(Cl)cc3)CC2)Cn2cc([N+](=O)[O-])nc2O1,150 to 151 °C
21,C[C@]1(CN2CCN(S(=O)(=O)CCCCc3ccc(Cl)cc3)CC2)Cn2cc([N+](=O)[O-])nc2O1,176 to 177 °C
22,CC1(CN2CCN(S(=O)(=O)CCc3ccc(Cl)cc3)CC2)Cn2cc([N+](=O)[O-])nc2O1 (stereo not drawn),182 to 184 °C
23,Cc1ccc(NC(=O)N2CCN(CC3(C)Cn4cc([N+](=O)[O-])nc4O3)CC2)cc1 (stereo not drawn),202 to 203 °C (dec.)
24,Cn1c(=O)n(CC2(C)Cn3cc([N+](=O)[O-])nc3O2)c2ccc(Cl)cc21 (stereo not drawn),261.3 to 263.3 °C
25,CC1(Cn2c(=O)n(C3CCN(C(=O)OCc4ccccc4)CC3)c3ccccc32)Cn2cc([N+](=O)[O-])nc2O1 (stereo not drawn),181.7 to 184.6 °C
26,CC1(CCc2nnnn2-c2ccc(Cl)cc2)Cn2cc([N+](=O)[O-])nc2O1 (stereo not drawn),198 to 200 °C
27,C[C@]1(CN2CCc3ccccc3C2)Cn2cc([N+](=O)[O-])nc2O1,153 to 155.3 °C
28,O=C(OCc1ccc(C(F)(F)F)cc1)N1CCN(C(=O)N2CCC3(CC2)Cn2cc([N+](=O)[O-])nc2O3)CC1,221 to 223 °C
29,CN(C)c1ccc(NC(=O)N2CCC3(CC2)Cn2cc([N+](=O)[O-])nc2O3)cc1,244 to 247 °C (dec.)
30,O=C(CN1CCN(C(=O)OCc2ccc(OC(F)(F)F)cc2)CC1)N1CCC2(CC1)Cn1cc([N+](=O)[O-])nc1O2,137 to 139 °C
